Reference: patent US11040981B2, “Pyrrolotriazine compounds and methods of inhibiting TAM kinases” (Syros Pharmaceuticals, Inc., priority 2017, dated 2021)

Key:
[1] = molecular target: T1, MERTK (Homo sapiens, UniProt Q12866); experiment: TR-FRET kinase activity assay, MERTK; format: biochemical; conditions: for IC50: TR-FRET activity assay, ATP at Km, 60 minutes, read-out: Mer IC50
T1 sequence (Q12866 21-999): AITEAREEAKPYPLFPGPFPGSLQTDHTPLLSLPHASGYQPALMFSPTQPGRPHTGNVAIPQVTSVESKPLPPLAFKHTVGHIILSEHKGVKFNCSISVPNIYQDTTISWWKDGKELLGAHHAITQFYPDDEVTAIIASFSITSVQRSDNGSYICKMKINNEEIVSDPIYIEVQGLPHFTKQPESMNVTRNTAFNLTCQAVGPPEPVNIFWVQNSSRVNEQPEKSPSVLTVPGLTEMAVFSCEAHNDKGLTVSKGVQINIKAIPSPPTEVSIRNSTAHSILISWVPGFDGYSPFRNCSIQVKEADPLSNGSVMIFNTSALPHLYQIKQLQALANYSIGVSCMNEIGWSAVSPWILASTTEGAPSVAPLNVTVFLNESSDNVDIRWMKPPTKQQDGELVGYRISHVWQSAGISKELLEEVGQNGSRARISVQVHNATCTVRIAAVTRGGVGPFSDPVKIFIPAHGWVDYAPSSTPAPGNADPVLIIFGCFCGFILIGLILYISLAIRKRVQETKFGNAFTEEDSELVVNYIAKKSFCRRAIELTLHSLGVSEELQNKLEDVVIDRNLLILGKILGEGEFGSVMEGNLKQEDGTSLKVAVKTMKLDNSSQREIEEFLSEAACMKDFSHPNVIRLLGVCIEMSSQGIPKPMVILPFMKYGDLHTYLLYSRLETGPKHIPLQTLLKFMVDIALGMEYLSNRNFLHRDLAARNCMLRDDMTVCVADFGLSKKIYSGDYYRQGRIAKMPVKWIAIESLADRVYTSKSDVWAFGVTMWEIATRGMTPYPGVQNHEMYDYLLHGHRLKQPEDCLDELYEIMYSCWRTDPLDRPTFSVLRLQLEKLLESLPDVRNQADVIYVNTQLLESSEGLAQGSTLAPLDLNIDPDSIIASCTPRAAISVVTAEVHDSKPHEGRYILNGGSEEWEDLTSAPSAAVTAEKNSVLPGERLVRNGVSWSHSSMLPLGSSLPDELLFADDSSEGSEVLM
In short: (§1)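 IC50 reflects the drop in TR-FRET between Eu anti-phosphotyrosine antibody and labelled peptide after a 60-minute room-temperature reaction. Buffer was 50 mM HEPES pH 7.5 with 10 mM MgCl2, 1 mM EGTA, 0.01% Brij 35 and 1 mM DTT, with ATP at Km per enzyme and EDTA quench.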

[2] = molecular target: T2, TYRO3 (Homo sapiens, UniProt Q06418); experiment: TR-FRET kinase activity assay, TYRO3; format: biochemical; conditions: ATP at Km, 60 minutes
T2 sequence (Q06418 41-890): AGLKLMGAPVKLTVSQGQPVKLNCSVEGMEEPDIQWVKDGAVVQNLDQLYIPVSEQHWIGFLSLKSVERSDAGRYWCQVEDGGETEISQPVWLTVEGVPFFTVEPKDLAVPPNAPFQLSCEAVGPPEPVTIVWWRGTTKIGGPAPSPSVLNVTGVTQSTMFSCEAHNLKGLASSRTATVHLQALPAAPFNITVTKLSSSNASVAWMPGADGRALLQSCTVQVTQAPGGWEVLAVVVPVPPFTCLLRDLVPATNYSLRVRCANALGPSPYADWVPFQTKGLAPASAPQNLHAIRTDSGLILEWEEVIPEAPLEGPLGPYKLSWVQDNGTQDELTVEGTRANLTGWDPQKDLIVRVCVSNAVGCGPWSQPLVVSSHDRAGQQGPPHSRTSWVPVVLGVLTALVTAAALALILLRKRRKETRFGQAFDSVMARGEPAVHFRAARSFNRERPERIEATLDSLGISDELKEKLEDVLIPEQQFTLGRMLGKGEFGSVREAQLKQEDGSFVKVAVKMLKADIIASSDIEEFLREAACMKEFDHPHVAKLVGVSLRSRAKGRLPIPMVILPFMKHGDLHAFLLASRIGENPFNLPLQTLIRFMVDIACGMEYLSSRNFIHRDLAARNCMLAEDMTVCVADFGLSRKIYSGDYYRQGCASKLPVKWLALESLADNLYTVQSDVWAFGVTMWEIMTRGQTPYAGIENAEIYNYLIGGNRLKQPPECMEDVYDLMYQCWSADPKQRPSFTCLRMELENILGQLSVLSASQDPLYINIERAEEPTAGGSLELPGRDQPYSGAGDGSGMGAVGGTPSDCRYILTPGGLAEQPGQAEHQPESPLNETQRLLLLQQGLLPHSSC
In short: as §1

[3] = ratio calculated as FLT3 IC50/Mer IC50
[4] = ratio of Mer to FLT3: FLT3 IC50/Mer IC50

SMILES | IC50 [1] | FLT3/Mer ratio (FLT3 IC50/Mer IC50) [1, 3] | IC50 [2] | FLT3/Mer ratio (FLT3 IC50/Mer IC50) [1, 4]
COCC(C)Nc1ncc2c(-c3cnn(C4COC4)c3)cc(C3CCNC(=O)C3)n2n1 (mixture of isomers) [Compound 592] | ≤ 100 nM | +++ (“+++” represents a ratio of >100) | ≤ 100 nM | 
CC(COc1ccccc1)Nc1ncc2c(-c3cnn(C4COC4)c3)cc([C@H]3CC[C@H](O)CC3)n2n1 (mixture of isomers) [Compound 528] | ≤ 100 nM | +++ (“+++” represents a ratio of >100) | ≤ 100 nM | 
CC(Cc1ccc(F)cc1)Nc1ncc2c(-c3cnn(C4COC4)c3)cc(C3CCC(O)CC3)n2n1 (racemic) [Compound 535] | ≤ 100 nM | ++ (“++” represents a ratio of between 10 and 100) | ≤ 100 nM | 
CC(Nc1ncc2c(-c3cnn(C4COC4)c3)cc(C3CCC(O)CC3)n2n1)c1cccnc1 (racemic) [Compound 536] | ≤ 100 nM | +++ (“+++” represents a ratio of >100) | ≤ 100 nM | 
CC[C@H](C)Nc1ncc2c(C3CCNCC3)cc([C@H]3CC[C@H](O)CC3)n2n1 [Compound 135, (trans)-4-(2-((S)-sec-butylamino)-5-(piperidin-4-yl)pyrrolo[2,1-f][1,2,4]triazin-7-yl)cyclohexanol] | ≤ 100 nM |  | ≤ 100 nM | +++ (“+++” represents a ratio of >100)
CC[C@H](C)Nc1ncc2c(C3CCN(c4nccc(C)n4)CC3)cc([C@H]3CC[C@H](O)CC3)n2n1 [Compound 136, (trans)-4-(2-((S)-sec-butylamino)-5-(1-(4-methylpyrimidin-2-yl)piperidin-4-yl)pyrrolo[2,1-f][1,2,4]triazin-7-yl)cyclohexanol] | ≤ 100 nM |  | 100 to 1000 nM | +++ (“+++” represents a ratio of >100)
CCCCC[C@H](C)Nc1ncc2c([C@H]3CC[C@@H](C(=O)N4CCS(=O)(=O)CC4)CC3)cc([C@H]3CC[C@H](O)CC3)n2n1 [Compound 137] | ≤ 100 nM |  | ≤ 100 nM | +++ (“+++” represents a ratio of >100)
CCOCC(C)Nc1ncc2c(-c3ccc(CN4CCN(C)CC4)cc3)cc(C3CCC(O)CC3)n2n1 (stereo not drawn) [Compound 138] | ≤ 100 nM |  | ≤ 100 nM | ++ (“++” represents a ratio of between 10 and 100)
COC[C@H](C)Nc1ncc2c(-c3ccc(C(=O)O)cc3)cc([C@H]3CC[C@H](O)CC3)n2n1 [Compound 139] | ≤ 100 nM |  | ≤ 100 nM | +++ (“+++” represents a ratio of >100)
COC[C@H](C)Nc1ncc2c(-c3ccc(CN4CCOCC4)cc3)cc([C@H]3CC[C@H](O)CC3)n2n1 [Compound 140] | ≤ 100 nM |  | ≤ 100 nM | +++ (“+++” represents a ratio of >100)
COC[C@H](C)Nc1ncc2c(C3=CCOCC3)cc([C@H]3CC[C@H](O)CC3)n2n1 [Compound 141] | ≤ 100 nM |  | ≤ 100 nM | +++ (“+++” represents a ratio of >100)
COCC(C)Nc1ncc2c(-c3ccc(CN4CCCC4)cc3)cc(C3CCC(O)CC3)n2n1 (stereo not drawn) [Compound 142] | ≤ 100 nM |  | ≤ 100 nM | +++ (“+++” represents a ratio of >100)
COCC(C)Nc1ncc2c(-c3ccc(C(C)N4CCOCC4)cc3)cc(C3CCC(O)CC3)n2n1 (stereo not drawn) [Compound 143] | ≤ 100 nM |  | ≤ 100 nM | ++ (“++” represents a ratio of between 10 and 100)
C[C@H](Nc1ncc2c(-c3cnn(C4COC4)c3)cc([C@H]3CC[C@H](O)CC3)n2n1)C(F)(F)F [Compound 510] | ≤ 100 nM | +++ (“+++” represents a ratio of >100) | ≤ 100 nM | 
COC[C@H](C)Nc1ncc2c(-c3cnn(C4COC4)c3)cc(-c3cccc(O)c3)n2n1 [Compound 511] | ≤ 100 nM | ++ (“++” represents a ratio of between 10 and 100) | ≤ 100 nM | 
COC[C@H](C)Nc1ncc2c(-c3ccnc(N4CCN(CC5COC5)CC4)c3)cc([C@H]3CC[C@H](O)CC3)n2n1 [Compound 512] | ≤ 100 nM | +++ (“+++” represents a ratio of >100) | ≤ 100 nM | 
C[C@@H](COC(F)F)Nc1ncc2c(-c3ccc(S(C)(=O)=O)nc3)cc([C@H]3CC[C@H](O)CC3)n2n1 [Compound 513] | ≤ 100 nM | +++ (“+++” represents a ratio of >100) | ≤ 100 nM | 
CCN(C(=O)N1CCN(c2cc(-c3cc([C@H]4CC[C@H](O)CC4)n4nc(N[C@@H](C)COC)ncc34)ccn2)CC1)C(C)C [Compound 514] | ≤ 100 nM | +++ (“+++” represents a ratio of >100) | ≤ 100 nM | 
COC[C@H](C)Nc1ncc2c(-c3cnn(C4COC4)c3)cc(C3CCC(F)(F)CC3)n2n1 [Compound 515] | ≤ 100 nM | +++ (“+++” represents a ratio of >100) | ≤ 100 nM | 
COC[C@H](C)Nc1ncc2c(-c3cnn(C(C)(C)C(=O)N4CCCC5(COC5)C4)c3)cc([C@H]3CC[C@H](O)CC3)n2n1 [Compound 516] | ≤ 100 nM | +++ (“+++” represents a ratio of >100) | ≤ 100 nM | 
Cc1nnc(C(C)(C)n2cc(-c3cc([C@H]4CC[C@H](O)CC4)n4nc(N[C@@H](C)COC(F)F)ncc34)cn2)o1 [Compound 517] | ≤ 100 nM | +++ (“+++” represents a ratio of >100) | ≤ 100 nM | 
COC[C@H](C)Nc1ncc2c(-c3ccnc(N4CCc5cnn(C)c5C4)c3)cc([C@H]3CC[C@H](O)CC3)n2n1 [Compound 518] | ≤ 100 nM | +++ (“+++” represents a ratio of >100) | ≤ 100 nM | 
COC[C@H](C)Nc1ncc2c(-c3cnn(C4COC4)c3)cc(C3CCSCC3)n2n1 [Compound 522] | ≤ 100 nM | +++ (“+++” represents a ratio of >100) | ≤ 100 nM | 
